The subject of test [1] is CRISPR-mediated homology-directed repair (HDR). To be noted: description of the known compound; cited from earlier work.
Test [2] has as its system HEK293 eTLR cells. To be noted: for HDR rates: compounds added 24 hours post-transfection, FACS 72 h after transfection, Figure 2A.
In test [3] the test system is HEK293 eTLR cells. To be noted: treated four hours before transfection; FACS 72 h after transfection; Figure 3.

Where two headings read alike, the source gives them in different places.

On to `c1cnccn1` [SCR7 pyrazine], for which, in test [1], the “enhancement of CRISPR-mediated homology-directed repair (HDR)” value was “up to 19 fold”.

On to `COc1ccc([C@@H](O)c2cc(-c3ncnc4cc(N5CCOCC5)ccc34)c(F)cc2Cl)nn1` [M3814], for which the HDR rates entry in the test with HEK293 eTLR cells [2] was “increased HDR rates”; in the test with HEK293 eTLR cells [3] it was “significantly higher HDR rates than ITD Alt-R HDR Enhancer V2”.

As to `Cc1cc2ncnn2cc1Nc1ncc2c(n1)n(C1CCOCC1)c(=O)n2C` [AZD-7648], the HDR rates result in the test on HEK293 eTLR cells [2] is “increased HDR rates”; in the test with HEK293 eTLR cells [3] it was “significantly higher HDR rates than ITD Alt-R HDR Enhancer V2”. In addition, in the test on HEK293 eTLR cells [2] (range tested 0.5 to 2 µM, Figure 2B), the “concentration at which the HDR rates are maximally increased” value is 0.5 µM.

Regarding NU7441, the HDR rates entry in the test with HEK293 eTLR cells [2] is “increased HDR rates”.
